Experimental data reported in ChEMBL document CHEMBL1201862, “PubChem BioAssay data set” (2004).
Where “and” joins values, the source holds several entries; their conditions need not be identical. Equal values may be shown once. Calls of active or inactive are those of the source.

Tests used:
[1] = molecular target: T1, Alkaline phosphatase, tissue-nonspecific isozyme (Homo sapiens, UniProt P05186); test: TNAP enzyme inhibition by screening hits, dose response, selectivity assay for mouse IAP inhibitor project, biochemical, human TNAP, uHTS hits (AID 488906); format: functional
T1 sequence (P05186 whole entry): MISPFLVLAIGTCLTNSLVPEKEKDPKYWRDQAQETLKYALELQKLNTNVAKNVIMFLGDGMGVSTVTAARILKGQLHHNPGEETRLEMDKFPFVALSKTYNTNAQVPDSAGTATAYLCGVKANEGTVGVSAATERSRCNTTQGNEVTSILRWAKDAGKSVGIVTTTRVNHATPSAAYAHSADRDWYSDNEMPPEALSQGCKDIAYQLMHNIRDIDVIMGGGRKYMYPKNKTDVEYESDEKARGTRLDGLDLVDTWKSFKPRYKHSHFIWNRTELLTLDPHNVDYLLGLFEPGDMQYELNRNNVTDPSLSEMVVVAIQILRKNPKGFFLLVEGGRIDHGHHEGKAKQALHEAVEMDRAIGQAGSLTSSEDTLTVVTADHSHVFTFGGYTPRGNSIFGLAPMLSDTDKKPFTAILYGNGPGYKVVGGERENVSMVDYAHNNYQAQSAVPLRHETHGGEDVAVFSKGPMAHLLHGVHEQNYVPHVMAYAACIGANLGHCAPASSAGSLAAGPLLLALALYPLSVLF

[2] = molecular target: T2, Intestinal-type alkaline phosphatase (Mus musculus, UniProt P24822); test: PubChem AID 488785; format: functional
T2 sequence (P24822 whole entry): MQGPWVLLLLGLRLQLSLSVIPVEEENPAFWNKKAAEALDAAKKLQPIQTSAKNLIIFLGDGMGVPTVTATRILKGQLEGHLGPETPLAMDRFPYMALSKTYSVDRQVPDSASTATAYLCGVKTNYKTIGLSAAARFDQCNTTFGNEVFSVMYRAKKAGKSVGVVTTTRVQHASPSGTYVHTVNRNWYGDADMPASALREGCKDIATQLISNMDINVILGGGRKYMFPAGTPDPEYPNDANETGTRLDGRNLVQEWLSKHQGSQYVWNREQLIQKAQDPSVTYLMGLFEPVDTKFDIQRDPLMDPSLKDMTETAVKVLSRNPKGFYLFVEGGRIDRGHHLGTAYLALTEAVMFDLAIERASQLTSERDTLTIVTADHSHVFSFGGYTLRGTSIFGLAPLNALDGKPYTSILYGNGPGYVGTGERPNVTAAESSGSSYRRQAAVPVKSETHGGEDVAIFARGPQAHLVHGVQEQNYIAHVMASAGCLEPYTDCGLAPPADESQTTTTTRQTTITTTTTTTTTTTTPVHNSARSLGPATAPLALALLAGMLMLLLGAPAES

[3] = molecular target: Intestinal-type alkaline phosphatase (Homo sapiens, UniProt P09923); test: activation of human intestinal alkaline phosphatase – biochemical, dose response (AID 488873); format: functional
Chain of Intestinal-type alkaline phosphatase (Homo sapiens, UniProt P09923) (P09923 whole entry): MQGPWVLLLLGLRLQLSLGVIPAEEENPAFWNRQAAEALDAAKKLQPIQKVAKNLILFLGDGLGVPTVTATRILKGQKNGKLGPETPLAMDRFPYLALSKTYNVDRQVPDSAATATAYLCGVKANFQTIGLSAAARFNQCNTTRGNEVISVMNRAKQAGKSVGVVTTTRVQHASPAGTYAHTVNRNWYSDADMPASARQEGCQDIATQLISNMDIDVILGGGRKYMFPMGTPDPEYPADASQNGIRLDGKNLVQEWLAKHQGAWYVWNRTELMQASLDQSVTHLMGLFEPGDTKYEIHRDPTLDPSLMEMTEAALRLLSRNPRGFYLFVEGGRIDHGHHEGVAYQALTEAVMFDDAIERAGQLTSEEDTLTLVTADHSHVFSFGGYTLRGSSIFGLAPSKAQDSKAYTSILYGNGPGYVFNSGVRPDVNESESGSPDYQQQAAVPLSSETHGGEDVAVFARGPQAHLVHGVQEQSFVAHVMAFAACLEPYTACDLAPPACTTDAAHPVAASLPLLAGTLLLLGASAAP

[4] = molecular target: T2, Intestinal-type alkaline phosphatase; test: mouse intestinal alkaline phosphatase activators, dose response, biochemical, luminescence, uHTS hits (AID 488783); format: functional
[5] = molecular target: T1, Alkaline phosphatase, tissue-nonspecific isozyme; test: activation of tissue-nonspecific alkaline phosphatase – biochemical, TNAP isozyme, mouse IAP uHTS hits, selectivity assay for mouse IAP activator project, dose response (AID 488880); format: functional
[6] = molecular target: T3, Heat shock factor protein 1 (Mus musculus, UniProt P38532); test: decrease of HSF1-responsive luciferase luminescence – cell-based, NIH3T3, dose retest, confirmation (AID 2382); format: functional;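 note: NIH3T3 fibroblasts with HSF1-driven luciferase reporter stressed by proteasome inhibitor MG132; luminescence from HSF1-driven luciferase expression after 8 hours of MG132 stress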
T3 sequence (P38532 whole entry): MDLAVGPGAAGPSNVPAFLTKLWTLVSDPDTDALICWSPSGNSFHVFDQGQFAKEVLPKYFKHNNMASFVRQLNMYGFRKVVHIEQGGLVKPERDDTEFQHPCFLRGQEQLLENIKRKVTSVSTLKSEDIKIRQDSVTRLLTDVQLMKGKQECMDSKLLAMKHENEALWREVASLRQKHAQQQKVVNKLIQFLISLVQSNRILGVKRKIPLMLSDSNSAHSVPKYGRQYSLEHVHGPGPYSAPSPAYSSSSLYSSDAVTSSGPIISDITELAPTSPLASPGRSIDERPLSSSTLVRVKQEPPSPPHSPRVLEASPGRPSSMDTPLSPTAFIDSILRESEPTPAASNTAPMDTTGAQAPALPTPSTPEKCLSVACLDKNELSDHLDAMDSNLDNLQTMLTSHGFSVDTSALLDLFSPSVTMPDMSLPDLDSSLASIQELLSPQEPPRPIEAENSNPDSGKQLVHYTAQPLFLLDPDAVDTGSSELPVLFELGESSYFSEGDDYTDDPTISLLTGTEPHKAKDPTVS

[7] = molecular target: T4, Tyrosine-protein phosphatase non-receptor type 22 (Homo sapiens, UniProt Q9Y2R2); format: functional
T4 sequence (Q9Y2R2 whole entry): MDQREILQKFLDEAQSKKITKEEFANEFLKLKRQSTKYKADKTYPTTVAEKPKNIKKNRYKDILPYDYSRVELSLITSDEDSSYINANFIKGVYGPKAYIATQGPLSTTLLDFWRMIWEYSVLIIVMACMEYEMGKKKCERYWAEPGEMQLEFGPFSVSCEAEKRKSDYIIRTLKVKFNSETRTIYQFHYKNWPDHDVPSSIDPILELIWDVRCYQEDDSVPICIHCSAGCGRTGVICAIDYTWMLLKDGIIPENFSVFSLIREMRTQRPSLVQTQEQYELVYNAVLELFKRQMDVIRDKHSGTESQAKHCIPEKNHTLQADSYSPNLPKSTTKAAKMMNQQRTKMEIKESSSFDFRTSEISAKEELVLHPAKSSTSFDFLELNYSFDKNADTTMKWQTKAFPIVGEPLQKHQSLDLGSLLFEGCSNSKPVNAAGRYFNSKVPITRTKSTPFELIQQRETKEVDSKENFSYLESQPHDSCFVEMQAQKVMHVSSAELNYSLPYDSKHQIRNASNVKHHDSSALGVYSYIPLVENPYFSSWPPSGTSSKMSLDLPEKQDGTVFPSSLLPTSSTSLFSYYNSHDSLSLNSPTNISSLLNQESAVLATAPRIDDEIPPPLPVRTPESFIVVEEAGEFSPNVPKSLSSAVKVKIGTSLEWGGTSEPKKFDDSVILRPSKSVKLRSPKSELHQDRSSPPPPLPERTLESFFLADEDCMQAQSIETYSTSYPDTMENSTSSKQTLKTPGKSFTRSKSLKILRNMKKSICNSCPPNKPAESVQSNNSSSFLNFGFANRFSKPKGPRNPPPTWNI

[8] = molecular target: Tyrosine-protein phosphatase non-receptor type 7 (Homo sapiens, UniProt P35236); format: functional
[9] = molecular target: T4, Tyrosine-protein phosphatase non-receptor type 22; format: functional; remark: listed apart in the source
[10] = molecular target: T5, Mannose-6-phosphate isomerase (Homo sapiens, UniProt P34949); test: phosphomannose isomerase inhibition – biochemical, fluorescence intensity, confirmation (AID 1535)
T5 sequence (P34949 whole entry): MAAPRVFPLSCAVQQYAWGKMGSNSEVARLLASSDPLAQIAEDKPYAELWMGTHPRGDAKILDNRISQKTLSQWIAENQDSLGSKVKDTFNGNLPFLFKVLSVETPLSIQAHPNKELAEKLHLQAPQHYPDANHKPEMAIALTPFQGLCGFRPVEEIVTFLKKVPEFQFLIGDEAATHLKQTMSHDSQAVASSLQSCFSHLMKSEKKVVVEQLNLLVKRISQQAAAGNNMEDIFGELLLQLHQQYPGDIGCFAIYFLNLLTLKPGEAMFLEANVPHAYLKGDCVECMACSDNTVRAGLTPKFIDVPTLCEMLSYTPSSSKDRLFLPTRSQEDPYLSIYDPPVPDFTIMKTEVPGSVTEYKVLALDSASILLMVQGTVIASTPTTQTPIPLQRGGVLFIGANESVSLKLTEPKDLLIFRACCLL

[11] = molecular target: Phosphoethanolamine/phosphocholine phosphatase (Homo sapiens, UniProt Q8TCT1); test: SAR assay for compounds that inhibit PHOSPHO1. [Related pubchem assays (depositor defined):AID1545, AID1565, AID1574]
Phosphomannomutase 2 = Phosphomannomutase 2 (Homo sapiens, UniProt O15305); test: Counter screen SAR assay for PMM2 inhibitors via a fluorescence intensity assay. [Related pubchem assays (depositor defined):AID1545, AID1574]
Chain of Phosphomannomutase 2 (O15305 whole entry): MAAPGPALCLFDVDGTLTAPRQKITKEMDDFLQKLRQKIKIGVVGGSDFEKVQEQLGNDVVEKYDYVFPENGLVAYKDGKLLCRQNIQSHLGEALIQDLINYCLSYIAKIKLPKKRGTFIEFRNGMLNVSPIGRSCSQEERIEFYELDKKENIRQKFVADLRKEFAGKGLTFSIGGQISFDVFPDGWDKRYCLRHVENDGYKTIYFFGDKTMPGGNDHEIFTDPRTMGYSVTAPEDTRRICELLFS

CAAX prenyl protease 1 = CAAX prenyl protease 1 (Saccharomyces cerevisiae S288c, UniProt P47154); test: yeast CAAX protease Ste24 inhibition – biochemical, S. cerevisiae, plate reader, cherry-pick, dose response (AID 488815)
Chain of CAAX prenyl protease 1 (P47154 whole entry): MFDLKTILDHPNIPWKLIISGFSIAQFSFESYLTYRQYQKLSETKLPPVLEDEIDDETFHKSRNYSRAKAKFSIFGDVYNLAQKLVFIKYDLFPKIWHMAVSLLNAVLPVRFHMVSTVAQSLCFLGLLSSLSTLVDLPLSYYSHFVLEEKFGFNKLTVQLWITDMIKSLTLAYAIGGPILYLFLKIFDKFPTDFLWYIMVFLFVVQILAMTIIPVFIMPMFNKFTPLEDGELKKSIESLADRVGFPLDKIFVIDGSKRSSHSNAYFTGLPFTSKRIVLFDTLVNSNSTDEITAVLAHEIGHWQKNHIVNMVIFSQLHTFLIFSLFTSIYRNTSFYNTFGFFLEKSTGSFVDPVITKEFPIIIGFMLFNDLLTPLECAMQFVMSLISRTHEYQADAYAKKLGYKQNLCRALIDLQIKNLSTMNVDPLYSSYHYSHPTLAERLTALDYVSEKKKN

CAAX prenyl protease 2 = CAAX prenyl protease 2 (Homo sapiens, UniProt Q9Y256); test: inhibition of Ras-converting CAAX protease Rce1 – biochemical, yeast membranes, quenched-peptide fluorescence, cherry-pick, dose response (AID 588849)
Cannabinoid receptor 1 [12] = molecular target: T6, Cannabinoid receptor 1 (Homo sapiens, UniProt P21554); test: SAR analysis of agonists of the Cannabinoid Receptor 1 using an Image-Based Assay - Set 4. [Related pubchem assays (depositor defined):AID2013, AID2026]; format: functional
T6 sequence (P21554 whole entry): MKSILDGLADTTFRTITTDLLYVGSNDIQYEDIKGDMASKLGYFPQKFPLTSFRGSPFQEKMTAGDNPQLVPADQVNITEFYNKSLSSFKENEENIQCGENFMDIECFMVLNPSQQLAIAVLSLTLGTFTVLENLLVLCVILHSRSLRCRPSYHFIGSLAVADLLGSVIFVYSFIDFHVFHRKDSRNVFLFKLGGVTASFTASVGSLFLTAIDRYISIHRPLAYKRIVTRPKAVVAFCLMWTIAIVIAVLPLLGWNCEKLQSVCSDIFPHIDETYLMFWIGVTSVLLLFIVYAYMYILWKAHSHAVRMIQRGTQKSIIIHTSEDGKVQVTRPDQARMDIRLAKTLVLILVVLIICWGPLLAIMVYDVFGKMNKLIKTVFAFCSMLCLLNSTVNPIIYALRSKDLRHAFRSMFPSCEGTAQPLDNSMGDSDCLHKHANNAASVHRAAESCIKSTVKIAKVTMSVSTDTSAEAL

Streptokinase A = molecular target: T7, Streptokinase A (Streptococcus pyogenes serotype M1, UniProt P10520); test: viability-normalized secreted streptokinase activity reduction – plasminogen activation absorbance, OD405, dose response (AID 1914); format: functional, Streptococcus pyogenes M1 GAS;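 note: secreted streptokinase activity via plasminogen activation per viability signal from cell pellet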
T7 sequence (P10520 whole entry): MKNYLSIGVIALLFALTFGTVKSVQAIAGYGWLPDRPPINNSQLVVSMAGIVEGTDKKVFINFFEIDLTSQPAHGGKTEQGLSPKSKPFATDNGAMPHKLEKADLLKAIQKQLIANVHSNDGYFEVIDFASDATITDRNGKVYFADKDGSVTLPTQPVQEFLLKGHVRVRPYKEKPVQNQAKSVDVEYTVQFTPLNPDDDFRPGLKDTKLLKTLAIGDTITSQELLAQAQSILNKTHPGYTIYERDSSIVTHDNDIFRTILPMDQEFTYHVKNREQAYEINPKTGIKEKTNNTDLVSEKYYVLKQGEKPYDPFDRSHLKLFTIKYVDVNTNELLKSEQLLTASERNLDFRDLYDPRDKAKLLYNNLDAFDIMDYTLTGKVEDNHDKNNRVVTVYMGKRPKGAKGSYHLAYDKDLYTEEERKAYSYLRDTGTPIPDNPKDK

Cannabinoid receptor 2 [13] = molecular target: T8, Cannabinoid receptor 2 (Homo sapiens, UniProt P34972); test: SAR analysis of agonists of the Cannabinoid Receptor 2 using an Image-Based Assay - Set 3. [Related pubchem assays (depositor defined):AID2013, AID2026]; format: functional
T8 sequence (P34972 whole entry): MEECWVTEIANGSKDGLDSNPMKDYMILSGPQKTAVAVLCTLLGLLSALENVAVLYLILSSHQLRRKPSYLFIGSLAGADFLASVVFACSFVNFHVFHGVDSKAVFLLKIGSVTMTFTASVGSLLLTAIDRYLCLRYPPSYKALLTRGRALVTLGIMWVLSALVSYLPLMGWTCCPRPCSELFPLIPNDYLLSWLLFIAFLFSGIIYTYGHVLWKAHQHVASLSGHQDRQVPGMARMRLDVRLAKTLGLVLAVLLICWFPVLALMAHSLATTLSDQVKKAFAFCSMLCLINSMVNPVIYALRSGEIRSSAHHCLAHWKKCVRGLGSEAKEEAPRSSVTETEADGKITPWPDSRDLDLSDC

Cytochrome P450 2D6 = Cytochrome P450 2D6 (Homo sapiens, UniProt P10635);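 note: CYP2D6 member of a cytochrome P450 panel assay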
Chain of Cytochrome P450 2D6 (P10635 whole entry): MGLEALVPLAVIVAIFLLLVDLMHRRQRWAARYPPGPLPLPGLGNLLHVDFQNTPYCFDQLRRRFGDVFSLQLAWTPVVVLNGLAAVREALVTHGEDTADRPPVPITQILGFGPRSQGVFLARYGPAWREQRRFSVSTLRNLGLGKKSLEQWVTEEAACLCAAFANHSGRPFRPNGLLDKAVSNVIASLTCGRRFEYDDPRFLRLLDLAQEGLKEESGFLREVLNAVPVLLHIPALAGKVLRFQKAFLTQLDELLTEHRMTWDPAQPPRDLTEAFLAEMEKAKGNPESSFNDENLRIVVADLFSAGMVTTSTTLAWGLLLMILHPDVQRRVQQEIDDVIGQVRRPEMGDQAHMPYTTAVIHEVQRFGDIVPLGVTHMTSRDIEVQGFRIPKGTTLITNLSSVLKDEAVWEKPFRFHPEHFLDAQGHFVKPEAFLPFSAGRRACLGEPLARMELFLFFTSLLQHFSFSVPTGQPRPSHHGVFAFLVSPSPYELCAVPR

[14] = molecular target: G-protein coupled receptor 55 (Homo sapiens, UniProt Q9Y2T6); test: SAR Analysis of Selective Antagonists of GPR55 using an Image-Based Assay - Set 4. [Related pubchem assays (depositor defined):AID2013, AID2026]; format: functional;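 note: antagonism of response to 5 µM lysophosphatidylinositol agonist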
Chain of G-protein coupled receptor 55 (Q9Y2T6 whole entry): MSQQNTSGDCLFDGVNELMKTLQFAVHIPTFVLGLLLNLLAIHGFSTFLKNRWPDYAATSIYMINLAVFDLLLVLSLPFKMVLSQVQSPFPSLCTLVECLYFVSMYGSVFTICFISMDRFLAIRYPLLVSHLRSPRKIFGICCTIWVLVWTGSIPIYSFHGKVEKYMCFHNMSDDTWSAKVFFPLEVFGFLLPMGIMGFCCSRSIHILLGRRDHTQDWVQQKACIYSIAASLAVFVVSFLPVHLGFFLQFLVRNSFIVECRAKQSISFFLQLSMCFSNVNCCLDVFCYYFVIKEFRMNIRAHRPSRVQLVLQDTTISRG

[15] = molecular target: T9, G-protein coupled receptor 35 (Homo sapiens, UniProt Q9HC97); test: SAR analysis of Agonists of the GPR35 Receptor using an Image-Based Assay - Set 4. [Related pubchem assays (depositor defined):AID2013, AID2026]; format: functional
T9 sequence (Q9HC97 whole entry): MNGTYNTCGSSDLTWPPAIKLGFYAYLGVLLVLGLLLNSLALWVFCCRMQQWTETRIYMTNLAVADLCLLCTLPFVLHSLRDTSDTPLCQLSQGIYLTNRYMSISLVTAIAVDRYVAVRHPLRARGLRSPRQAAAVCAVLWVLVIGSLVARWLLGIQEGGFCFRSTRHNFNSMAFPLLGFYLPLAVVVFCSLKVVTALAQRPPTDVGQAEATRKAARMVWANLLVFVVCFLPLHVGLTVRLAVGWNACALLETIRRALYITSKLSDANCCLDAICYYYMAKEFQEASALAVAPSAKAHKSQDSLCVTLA

Cannabinoid receptor 1 [16] = molecular target: T6, Cannabinoid receptor 1; test: SAR analysis of antagonists of the Cannabinoid Receptor 1 using an Image-Based Assay - Set 4. [Related pubchem assays (depositor defined):AID2013, AID2026]; format: functional
Cannabinoid receptor 2 [17] = molecular target: T8, Cannabinoid receptor 2; test: SAR analysis of antagonists of the Cannabinoid Receptor 2 using an Image-Based Assay - Set 3. [Related pubchem assays (depositor defined):AID2013, AID2026]; format: functional
[18] = molecular target: T9, G-protein coupled receptor 35; test: SAR analysis of Antagonists of the GPR35 Receptor using an Image-Based Assay - Set 6. [Related pubchem assays (depositor defined):AID2013, AID2026]; format: functional
HEK293 [19] = test: NOD2 signaling inhibitors in MDP-stimulated cells, cell-based, uHTS, luminescence (AID 2001); format: functional; conditions: Homo sapiens
HEK293 [20] = test: cells; conditions: Homo sapiens
[21] = molecular target: Nucleotide-binding oligomerization domain-containing protein 2 (Homo sapiens, UniProt Q9HC29); test: inhibition of NOD2-driven NF-kB reporter – cell-based, luminescence, uHTS, HEK293 (AID 1566); format: functional
Tumor necrosis factor = Tumor necrosis factor (Homo sapiens, UniProt P01375); test: analog potency on TNFa NF-kB signaling – cell-based, revised, SAR follow-up (AID 2337); format: functional
Chain of Tumor necrosis factor (P01375 whole entry, the tested form may be a part): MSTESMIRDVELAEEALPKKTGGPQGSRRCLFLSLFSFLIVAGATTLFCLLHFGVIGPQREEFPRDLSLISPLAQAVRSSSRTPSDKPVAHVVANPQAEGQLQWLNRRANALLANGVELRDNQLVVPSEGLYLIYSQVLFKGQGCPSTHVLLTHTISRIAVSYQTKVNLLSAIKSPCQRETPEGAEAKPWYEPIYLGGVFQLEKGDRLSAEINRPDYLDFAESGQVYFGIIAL

[22] = molecular target: Nucleotide-binding oligomerization domain-containing protein 1 (Homo sapiens, UniProt Q9Y239); test: blockers of NOD1 pathway activity – revised, SAR follow-up (AID 2333); format: functional
Chain of Nucleotide-binding oligomerization domain-containing protein 1 (Q9Y239 whole entry, the tested form may be a part): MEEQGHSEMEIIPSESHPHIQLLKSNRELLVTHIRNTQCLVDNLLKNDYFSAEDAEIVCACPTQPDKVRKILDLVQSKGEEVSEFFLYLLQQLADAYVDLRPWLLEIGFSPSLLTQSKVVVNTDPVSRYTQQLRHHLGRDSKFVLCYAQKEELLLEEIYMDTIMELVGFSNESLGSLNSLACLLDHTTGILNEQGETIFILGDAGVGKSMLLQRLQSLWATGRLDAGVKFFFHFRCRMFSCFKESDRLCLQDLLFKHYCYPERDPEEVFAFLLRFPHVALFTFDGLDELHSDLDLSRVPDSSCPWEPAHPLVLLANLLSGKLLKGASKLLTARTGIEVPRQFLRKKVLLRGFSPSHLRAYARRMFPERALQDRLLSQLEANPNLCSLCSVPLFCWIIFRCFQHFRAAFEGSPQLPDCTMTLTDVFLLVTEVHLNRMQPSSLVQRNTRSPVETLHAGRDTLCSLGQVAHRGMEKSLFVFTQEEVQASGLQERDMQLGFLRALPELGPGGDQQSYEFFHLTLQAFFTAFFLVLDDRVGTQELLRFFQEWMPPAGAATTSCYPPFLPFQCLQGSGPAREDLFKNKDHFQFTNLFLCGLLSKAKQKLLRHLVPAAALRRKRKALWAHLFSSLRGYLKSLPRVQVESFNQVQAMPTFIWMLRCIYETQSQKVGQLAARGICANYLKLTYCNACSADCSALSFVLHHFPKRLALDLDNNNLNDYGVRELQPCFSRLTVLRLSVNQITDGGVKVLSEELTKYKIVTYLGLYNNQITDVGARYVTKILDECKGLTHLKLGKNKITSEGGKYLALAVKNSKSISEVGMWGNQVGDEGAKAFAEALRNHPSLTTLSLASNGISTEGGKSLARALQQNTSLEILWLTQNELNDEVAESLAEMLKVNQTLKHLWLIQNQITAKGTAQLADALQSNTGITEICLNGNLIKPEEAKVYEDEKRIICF

HEK293 [23] = test: inhibition of NOD1-driven NF-kB reporter – cell-based, luminescence, uHTS, primary screen (AID 1578); format: functional; conditions: Homo sapiens
HEK293 [24] = test: cells; format: functional, cell-based; conditions: Homo sapiens
HEK293 [25] = test: cells; format: functional, cell-based; conditions: Homo sapiens; remark: listed apart in the source
[26] = HEK-293T viability loss after treatment – luminescence, T-cell screen hits, cytotoxicity control for TCR NF-kB inhibitor project, dose response (AID 489026); format: functional, cell-based;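 note: cells exposed to compound about 14 hours before the viability readout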
HEK293 [27] = test: cells; format: functional, cell-based; conditions: Homo sapiens; remark: listed apart in the source

COc1ccc(OC)c(NC(=O)CCNS(=O)(=O)c2ccc3[nH]c(=O)oc3c2)c1
IC50 [1]: > 100 µM (inactive)
IC50 [2]: 2.49 µM (active)
EC50 [3]: > 100 µM (inactive)

COc1cc(OC)c(NC(=O)CN(C)S(=O)(=O)c2ccc3nc(O)oc3c2)cc1Cl
EC50 [4]: 51.5 µM (active)
EC50 [5]: 70.7 µM (active)
EC50 [6]: > 195 µM (not active)
EC50 [3]: 68.4 µM (active)

C=CCN(CC=C)C(=S)NC(=O)/C=C/c1ccc(C)cc1
IC50 [7]: > 79.4 µM (inactive)
IC50 [8]: > 79.4 µM (inactive)
IC50 [9]: > 79.4 µM (inactive)

O=c1c2ccc(F)cc2sn1-c1ccc(Cl)cc1Cl
IC50 [10]: 14.4 µM (active)
IC50 [11]: 0.534 µM (active)
IC50 (Phosphomannomutase 2): > 100 µM (inactive)

O=C(NCC1CC1)c1cc(-c2ccccc2)nn1CC1CC(c2cccc([N+](=O)[O-])c2)=NO1 (centres undefined)
AC50 (CAAX prenyl protease 1): 6.73 µM (active)
AC50 (CAAX prenyl protease 2): 11.7 µM (active)

COc1ccc(-c2n[nH]c(C)c2-c2ccc(Cl)cc2)c(O)c1
EC50 (Cannabinoid receptor 1 [12]): > 32 µM (inactive)
EC50 (Streptokinase A): 9.86 µM (active)
EC50 (Cannabinoid receptor 2 [13]): 4.81 µM (active) and 5.4 µM (active)
AC50 (Cytochrome P450 2D6): 28.2 µM (inconclusive)
IC50 [14]: 10.9 µM (inactive) and 13.4 µM (inactive)
EC50 [15]: > 32 µM (inactive)
IC50 (Cannabinoid receptor 1 [16]): 548 nM (active) and 607 nM (active)
IC50 (Cannabinoid receptor 2 [17]): 5.22 µM (active) and 4.83 µM (active)
IC50 [18]: > 32 µM (inactive)

Cc1cc(-c2ccc(C)c(S(=O)(=O)N3CCN(c4ccc([N+](=O)[O-])cc4)CC3)c2)on1
IC50 (HEK293 [19]): 7.6 µM (inactive)
IC50 (HEK293 [20]): > 20 µM (inactive)
EC50 [21]: > 20 µM (inactive)
IC50 (Tumor necrosis factor): 2.11 µM (active)
IC50 [22]: 2.42 µM (active)
EC50 (HEK293 [23]): 2.09 µM (active)
IC50 (HEK293 [24]): 2.36 µM (active)
IC50 (HEK293 [25]): > 20 µM (inactive)
IC50 [26]: > 80 µM (inactive)
IC50 (HEK293 [27]): > 20 µM (inactive)
